The target in one assay is xanthine oxidase (Bos taurus, UniProt P80457). Put plainly: Xanthine oxidase inhibition assay (superoxide-dependent cytochrome c reduction). The note with it: for % Inhibition (of initial rate of reaction) / inhibition at 1 µM / inhibition at 5 µM / inhibition at 10 µM / inhibition at 50 µM: n=3; for inhibition at 1 µM / inhibition at 5 µM / inhibition at 10 µM / inhibition at 50 µM: read-out: % Inhibition (of initial rate of reaction); for xanthine oxidase inhibition, result in words: statement under Table 4. The class given is biochemical. How it is done: Superoxide produced from the oxidation of varying concentrations of xanthine to uric acid in the presence of xanthine oxidase (5×10^-3 U/ml) was quantified by the superoxide dismutase inhibitable reduction of […] (10 μM) at 550 nm with respect to time. Enzyme inhibition was determined at varying concentrations of the inhibitors.
xanthine oxidase, sequence (P80457 whole entry): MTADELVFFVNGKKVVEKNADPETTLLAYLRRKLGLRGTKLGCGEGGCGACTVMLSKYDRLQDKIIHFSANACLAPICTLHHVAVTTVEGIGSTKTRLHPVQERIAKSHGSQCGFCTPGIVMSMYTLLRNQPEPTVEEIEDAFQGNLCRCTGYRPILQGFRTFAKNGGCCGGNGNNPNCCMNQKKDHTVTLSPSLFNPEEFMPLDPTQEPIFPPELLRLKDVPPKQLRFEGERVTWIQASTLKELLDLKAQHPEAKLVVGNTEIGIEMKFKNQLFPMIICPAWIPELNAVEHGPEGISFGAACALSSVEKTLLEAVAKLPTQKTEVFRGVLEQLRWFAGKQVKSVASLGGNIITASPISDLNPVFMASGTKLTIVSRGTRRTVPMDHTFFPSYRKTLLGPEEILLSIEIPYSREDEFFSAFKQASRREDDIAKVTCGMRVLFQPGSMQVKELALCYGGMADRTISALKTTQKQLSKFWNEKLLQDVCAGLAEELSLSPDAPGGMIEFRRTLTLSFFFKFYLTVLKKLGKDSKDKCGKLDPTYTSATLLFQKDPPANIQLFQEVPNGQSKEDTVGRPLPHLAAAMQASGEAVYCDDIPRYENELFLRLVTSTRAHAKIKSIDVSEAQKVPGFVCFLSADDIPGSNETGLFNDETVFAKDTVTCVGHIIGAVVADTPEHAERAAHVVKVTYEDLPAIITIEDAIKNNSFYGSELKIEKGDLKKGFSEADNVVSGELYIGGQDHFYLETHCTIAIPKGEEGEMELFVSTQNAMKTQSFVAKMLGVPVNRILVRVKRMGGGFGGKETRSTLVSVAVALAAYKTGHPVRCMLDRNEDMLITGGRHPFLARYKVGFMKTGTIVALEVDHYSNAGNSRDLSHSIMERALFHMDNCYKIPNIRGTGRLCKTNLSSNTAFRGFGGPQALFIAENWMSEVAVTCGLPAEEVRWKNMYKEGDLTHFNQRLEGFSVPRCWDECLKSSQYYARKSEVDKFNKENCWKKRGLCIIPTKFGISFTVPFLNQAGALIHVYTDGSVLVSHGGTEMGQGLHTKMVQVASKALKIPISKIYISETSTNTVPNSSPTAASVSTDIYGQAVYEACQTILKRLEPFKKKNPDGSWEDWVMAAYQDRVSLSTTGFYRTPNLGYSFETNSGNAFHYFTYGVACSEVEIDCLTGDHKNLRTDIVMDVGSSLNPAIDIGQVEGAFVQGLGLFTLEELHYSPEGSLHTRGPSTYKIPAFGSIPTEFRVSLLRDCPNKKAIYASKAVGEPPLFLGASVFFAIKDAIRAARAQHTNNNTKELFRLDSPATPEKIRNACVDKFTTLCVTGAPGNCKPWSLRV

For the next assay, the target named is bovine xanthine oxidase (Bos taurus, UniProt P80457). Briefly: Further xanthine oxidase inhibition studies, steady-state kinetic analysis (uric acid formation). The class given is biochemical. The note with it: 37° C.; for manner of xanthine oxidase inhibition: pH 7.4, inhibitors 1-3 μM. The protocol: The study was conducted at 37° C. using 30 mU/ml bovine xanthine oxidase in 50 mM phosphate buffer (ph 7.4). The initial rate of uric acid formation was determined spectrophotometrically (292 nm) in the presence of varying concentrations of xanthine (5, 7.5, 10, 15 and 20 μM) and the inhibitors (1-3 μM). Enzyme-inhibitor dissociation constant (Ki) values were calculated from the apparent 1/Vmax values obtained at different inhibitor concentrations.
bovine xanthine oxidase, sequence (P80457 whole entry): as above

Assay [1] can be described thus: Hydroxyl radical scavenging activity (inhibition of NPG hydroxylation by peroxynitrous acid). The note with it: n=3. The protocol: Antioxidant activity is based on the selective hydroxylation of NPG (N,N'-[5-nitro-1,3-phenylene] bisglutaramide) by hydroxyl radicals produced from peroxynitrous acid (1 mM) by the addition of peroxynitrite stabilised in base to a mixture of NPG (1 mM) and varying concentrations of the anti-ischaemic agents prepared in 0.2M phosphate buffer, pH 7. The solutions were analysed by RP-HPLC. NPS (50 mM), an analogue of NPG, was used as an internal standard. Inhibition of hydroxylation of NPG is a direct measure of the hydroxyl radical scavenging ability of the inhibitors.
Values are expressed as percentage scavenging of the hydroxyl radicals % standard deviation, n=3.

In a further assay the test system is rat hearts. Briefly: Heart ischaemia reperfusion studies (Langendorff perfused rat hearts). The note with it: 150 μM in reperfusion perfusate, after 60 min aerobic perfusion following 50 min ischaemia, ±sem. Further details: species or system Wistar rats. How it is done: Adult male Wistar rats (240-320 g) were anaesthetised intraperitoneally (i.p.) with sodium pentobarbital (Sagatal; 60 mg/kg and heparinised (100 IU/100 g body weight) through the femoral vein, and the heart excised in cold Krebs buffer. By Langendorff technique, the hearts were perfused at a constant pressure (100 mm H2 O) with Krebs bicarbonate buffer. The study was initiated by 30 min aerobic perfusion followed by a 50 min period of global ischaemia, achieved by clamping perfusion flow into the aorta, and finally by reperfusion over 60 min. A ballon was inserted into the left ventricle and inflated to a left ventricular end diastolic pressure (LVEDP) of 4 mm Hg and used to measure left ventricular developed pressure (LVDP) and heart rate (HR). In addition, the coronary effluent was collected over timed intervals as a measure of coronary flow (CF). Assessment of function was made 20 min after the start of the study and at 10 min intervals thereafter. SL301 treated hearts followed a similar protocol as above except that the drug was present in the reperfusion perfusate following the ischaemic insult.

Where [2] appears, read: Table 1, [Xanthine] = 50 μM, inhibitor 1 μM.
The mark [3] stands for this setting: Table 1, [Xanthine] = 50 μM, inhibitor 5 μM.
Setting [4] is: Table 1, [Xanthine] = 50 μM, inhibitor 10 μM.
Where [5] appears, read: Table 1, [Xanthine] = 50 μM, inhibitor 50 μM.
Where [6] appears, read: Table 2, [Xanthine] = 25 μM, inhibitor 5 μM.
[7] abbreviates: Table 2, [Xanthine] = 25 μM, inhibitor 10 μM.
The mark [8] stands for this setting: Table 2, [Xanthine] = 25 μM, inhibitor 50 μM.
The mark [9] stands for this setting: Table 3, [Xanthine] = 25 μM, inhibitor 1 μM.
Setting [10] is: Table 3, [Xanthine] = 25 μM, inhibitor 5 μM.
Setting [11] is: Table 3, [Xanthine] = 25 μM, inhibitor 10 μM.
Where [12] appears, read: Table 3, [Xanthine] = 25 μM, inhibitor 50 μM.
Setting [13] is: Table 4, [Xanthine] = 8 μM, inhibitor 1 μM.
The mark [14] stands for this setting: Table 4, [Xanthine] = 8 μM, inhibitor 5 μM.
[15] abbreviates: Table 4, [Xanthine] = 8 μM, inhibitor 10 μM.
The mark [16] stands for this setting: Table 4, [Xanthine] = 8 μM, inhibitor 50 μM.
Where [17] appears, read: Table 2, [Xanthine] = 25 μM, inhibitor 1 μM.

Like-named read-outs stand apart in the source and are kept apart here.

For the compound `Oc1ncnc2[nH]ncc12` [Allopurinol, allopurinol, reference compound], the “% Inhibition (of initial rate of reaction)” value (“% Inhibition” for short) at xanthine oxidase (setting [2]) came to 13.83%; on xanthine oxidase (setting [3]), 22.90%; on xanthine oxidase (setting [4]) it was 20.63%; at xanthine oxidase (setting [5]) it was 59.18%; at xanthine oxidase (setting [6]) it was 2.41%; on xanthine oxidase (setting [7]), 14.09%. Further, the “% Inhibition” value on xanthine oxidase (setting [8]) is 58.76%; on xanthine oxidase (setting [9]), 23.88%; at xanthine oxidase (setting [10]), 64.57%; at xanthine oxidase (setting [11]) it was 44.88%; at xanthine oxidase (setting [12]), 68.50%; on xanthine oxidase (setting [13]) it was 17.40%. Moreover, the “% Inhibition” value at xanthine oxidase (setting [14]) is 29.20%; at xanthine oxidase (setting [15]) it was 49.85%; at xanthine oxidase (setting [16]), 73.45%. For the same compound, the “manner of xanthine oxidase inhibition” value at bovine xanthine oxidase is on record as “competitive”.
As a reminder, the inhibition is the share of the control response that was lost under treatment. Consider `O=c1[nH]c(=O)c2c[nH]nc2[nH]1` [Oxypurinol, oxypurinol, reference compound], for which the inhibition at 1 µM turned out to be 2.26% on xanthine oxidase (setting [2]), 2.26% at xanthine oxidase (setting [17]), 15.4% at xanthine oxidase (setting [9]) and 6.06% at xanthine oxidase (setting [13]). In addition, the inhibition at 5 µM at xanthine oxidase (setting [3]) came to 24.8%; at xanthine oxidase (setting [6]), 37.3%; at xanthine oxidase (setting [10]), 46.1%; at xanthine oxidase (setting [14]), 33.3%. In addition, the inhibition at 10 µM on xanthine oxidase (setting [4]) is 32.3%; on xanthine oxidase (setting [7]), 42.4%; on xanthine oxidase (setting [11]), 30.8%; on xanthine oxidase (setting [15]) it was 45.5%. For the same compound, the inhibition at 50 µM was 67.4% at xanthine oxidase (setting [5]), 62.4% at xanthine oxidase (setting [8]), 43.6% on xanthine oxidase (setting [12]) and 48.5% on xanthine oxidase (setting [16]).
For the compound `O=c1c2cn[nH]c2ncn1O` [SL100, 1, hydroxy-6-oxypyrazolo-[3,4-d]-pyrimidine], the “xanthine oxidase inhibition, result in words” value at xanthine oxidase is “inactive”. Moreover, the “% Activity (percentage scavenging of the hydroxyl radical)” value was found to be 6.56% in assay [1] (Antioxidant Ratio 0.1), 37.70% in assay [1] (Antioxidant Ratio 0.5), 65.58% in assay [1] (Antioxidant Ratio 1.0) and 100% in assay [1] (Antioxidant Ratio 5.0).
For the compound `O=c1[nH]c2[nH]ncc2c(=O)n1O` [SL101, 2,6-dioxo-1-hydroxypyrazolo-[3,4-d]-pyrimidine], the “xanthine oxidase inhibition, result in words” value on xanthine oxidase was “inactive”. The “% Activity (percentage scavenging of the hydroxyl radical)” value in assay [1] (Antioxidant Ratio 0.1) is on record as 8.25%; in assay [1] (Antioxidant Ratio 0.5), 20.96%; in assay [1] (Antioxidant Ratio 1.0) it was 39.71%; in assay [1] (Antioxidant Ratio 5.0), 72.79%.
In the same order, the values of `O=c1c2[nH]cnc2ncn1O` [SL200, 1-hydroxy-6-oxopurine] are “inactive”, 25.13%, 48.49%, 69.54% and 90.09%.
As for `O=c1[nH]c2[nH]cnc2c(=O)n1O` [SL201], at xanthine oxidase, the “xanthine oxidase inhibition, result in words” value was “inactive”.
Take `O=c1c2nccnc2ncn1O` [SL300, 1-hydroxy-6-oxypyrazino-[2,3-d]-pterine]: the inhibition at 5 µM on xanthine oxidase (setting [3]) came out at 1.84%; at xanthine oxidase (setting [6]), 9.09%; on xanthine oxidase (setting [10]) it was 5.55%; at xanthine oxidase (setting [14]), 12.6%. For the same compound, the inhibition at 10 µM on xanthine oxidase (setting [4]) came to 14.2%; on xanthine oxidase (setting [7]), 16.1%; at xanthine oxidase (setting [11]), 11.1%; on xanthine oxidase (setting [15]), 19.1%. Also, the inhibition at 50 µM at xanthine oxidase (setting [5]) was found to be 16%; at xanthine oxidase (setting [8]) it was 34.7%; at xanthine oxidase (setting [12]) it was 27.8%; on xanthine oxidase (setting [16]), 38.5%. Moreover, the inhibition at 1 µM was found to be 13.8% on xanthine oxidase (setting [17]) and 6.15% at xanthine oxidase (setting [13]). Besides, the “% Activity (percentage scavenging of the hydroxyl radical)” value is listed as 6.04% in assay [1] (Antioxidant Ratio 0.5), 26.58% in assay [1] (Antioxidant Ratio 1.0) and 68.58% in assay [1] (Antioxidant Ratio 5.0).
As a reminder, the Ki is a dissociation constant, usually derived from enzyme kinetics or from competition with a known ligand. A high value points to a looser hold on the target. With `O=c1[nH]c2nccnc2c(=O)n1O` [SL301], the inhibition at 1 µM on xanthine oxidase (setting [2]) came to 29.1%; at xanthine oxidase (setting [17]), 37.1%; on xanthine oxidase (setting [9]), 25%; at xanthine oxidase (setting [13]) it was 22.3%. In addition, the inhibition at 5 µM is 31.8% on xanthine oxidase (setting [3]), 51% on xanthine oxidase (setting [6]), 41.7% on xanthine oxidase (setting [10]) and 41.8% on xanthine oxidase (setting [14]). Further, the inhibition at 10 µM was 39.6% at xanthine oxidase (setting [4]), 58% on xanthine oxidase (setting [7]), 58.3% on xanthine oxidase (setting [11]) and 49.8% on xanthine oxidase (setting [15]). Besides, the inhibition at 50 µM on xanthine oxidase (setting [5]) amounted to 63.2%; at xanthine oxidase (setting [8]), 72%; at xanthine oxidase (setting [12]), 77.8%; on xanthine oxidase (setting [16]), 70.9%. Further, the “% recovery of pre-ischaemic LVDP (left ventricular developed pressure)” value with rat hearts (control 41 ± 13) is given as 76 ± 9%. In addition, in the assay on rat hearts (control 49 ± 13), the “% recovery of pre-ischaemic HR (heart rate)” value is recorded as 90 ± 6%. Moreover, the “% recovery of pre-ischaemic CF (coronary flow)” value in the assay with rat hearts (control 83 ± 6) turned out to be 72 ± 4%. Also, the Ki at bovine xanthine oxidase (30 mU/ml bovine xanthine oxidase, 50 mM phosphate buffer pH 7.4, xanthine 5-20 μM) came to 0.7 µM. In addition, the “manner of xanthine oxidase inhibition” value on bovine xanthine oxidase is “competitive”. Moreover, the “% Activity (percentage scavenging of the hydroxyl radical)” value in assay [1] (Antioxidant Ratio 0.1) is 9.80%; in assay [1] (Antioxidant Ratio 0.5) it was 18.00%; in assay [1] (Antioxidant Ratio 1.0) it was 45.90%; in assay [1] (Antioxidant Ratio 5.0) it was 70.21%.

The values above are taken from patent US6004966A, “Use of xanthine oxidase inhibitors as anti-ischaemic agents” (BTG International Limited, priority 1994, dated 1999).
